Our source for the glass transition temperature values is the PolyMetriX glass transition set.

± gives the standard deviation of the reports.

In turn, `*/C(=C(/*)c1ccc([Si](C)(C)C)cc1)c1ccccc1` (repeat unit) displayed a glass transition temperature of 200.00 °C.
In the case of `*/C(=C/c1cc(OC)c(/C=C(/c2ccc(*)cc2)c2ccc(C(F)(F)F)cc2)cc1OC)c1ccc(C(F)(F)F)cc1` (repeat unit), the glass transition temperature is 208.00 °C.
`*/C(=C/c1cc(OC)c(/C=C(/c2ccc(*)cc2)c2ccc(F)cc2)cc1OC)c1ccc(F)cc1` (repeat unit) gave a glass transition temperature of 193.00 °C.
To `*/C(=C/c1cc(OC)c(/C=C(/c2ccc(*)cc2)c2ccc(OC)cc2)cc1OC)c1ccc(OC)cc1` (repeat unit) belongs 170.00 °C; to `*/C(=C/c1cc(OC)c(/C=C(\c2ccc(F)cc2)c2ccc(-c3ccc(*)cc3)cc2)cc1OC)c1ccc(F)cc1` (repeat unit), 201.00 °C.
`*/C(=C/c1cc(OCCCCCCCC)c(/C=C(\c2ccccc2)c2ccc3c(c2)Sc2ccc(*)cc2S3)cc1OCCCCCCCC)c1ccccc1` (repeat unit) returned a glass transition temperature of 93.00 °C.
In turn, `*/C(C#N)=C/c1cc(OCCCCCCCCCCCC)c(/C=C(\C#N)c2cc(OCCCCCCCCCCCC)c(*)cc2OC)cc1OC` (repeat unit) registered a glass transition temperature of 181.00 °C.
`*/C=C(\C#N)C(=O)OCCCCCCCCCCOC(=O)/C(C#N)=C/c1ccc2c(c1)c1cc(*)ccc1n2CCCCCCC` (repeat unit): the glass transition temperature is 59.00 °C.
For `*/C=C(\C#N)C(=O)OCCCCCCOC(=O)/C(C#N)=C/c1ccc2c(c1)c1cc(*)ccc1n2CCCCCCC` (repeat unit), the glass transition temperature was determined as 87.00 °C.
Take `*/C=C(\C#N)C(=O)OCCCCCCOC(=O)/C(C#N)=C/c1ccc2c(c1)c1cc(*)ccc1n2CCCCCCCCCCCCCC` (repeat unit): the glass transition temperature turned out to be 53.00 °C.
Molecule `*C(*)C(=O)OC` (repeat unit) came in with a glass transition temperature of 85.8 °C.
On to `*C(*)F` (repeat unit), for which the glass transition temperature worked out at 102.00 °C.
As to `*C(*)O` (repeat unit), the glass transition temperature worked out at 134.00 °C.
To `*C(C)C(*)C(=O)OCC` (repeat unit) belongs 157.00 °C; to `*C(C)C(*)C(=O)OCCC` (repeat unit), 116.00 °C.
On to `*C(C)C(*)C(=O)OCCCC` (repeat unit), for which the glass transition temperature is 90.00 °C.
`*C(F)(F)C(*)(F)OC(F)(F)C(F)(F)F` (repeat unit) displayed a glass transition temperature of 29.00 °C.
The molecule `*C(F)(F)C(*)(F)c1c(F)c(F)c(F)c(F)c1F` (repeat unit) registered a glass transition temperature of 194.00 °C.
`*C(F)(F)C1(F)C(F)(F)C(*)(F)C1(F)F` (repeat unit): the glass transition temperature was determined as 122.00 °C.
In turn, `*C(F)C(*)(F)OC(F)(F)F` (repeat unit) gave a glass transition temperature of -10.00 °C.
Turning to `*C([2H])([2H])C(*)(C(=O)OC([2H])([2H])C([2H])([2H])[2H])C([2H])([2H])[2H]` (repeat unit), the glass transition temperature is 94.00 °C.
With `*C([2H])([2H])C(*)(C(=O)OC([2H])([2H])[2H])C([2H])([2H])[2H]` (repeat unit), the glass transition temperature stood at 115.00 °C.
To `*C([2H])([2H])C(*)([2H])Cl` (repeat unit) belongs 85.00 °C; to `*C(c1ccc(N(C)C)cc1)C(*)c1ccc([N+](=O)[O-])cc1` (repeat unit), 139.00 °C; to `*C/C=C/N(/C=C/CC1CC(=O)N(c2ccc(Cc3ccc(N4C(=O)CC(*)C4=O)cc3)cc2)C1=O)c1ccc(/N=N/c2ccc([N+](=O)[O-])cc2)cc1` (repeat unit), 277.00 °C.
On to `*C1=C(c2ccc(-c3ccc4c(c3)C(CCCCCC)(CCCCCC)c3cc(-c5ccc(*)cc5)ccc3-4)cc2)C(=O)N(CCCCCCCC)C1=O` (repeat unit), for which the glass transition temperature was found to be 122.00 °C.
In turn, `*C1C(*)C2CC1C(C(=O)OCC13CC4CC(CC(C4)C1)C3)C2C(=O)OCC12CC3CC(CC(C3)C1)C2` (repeat unit) had a glass transition temperature of 328.00 °C.
In the case of `*C1C(*)C2CC1C(C(=O)OCCC13CC4CC(CC(C4)C1)C3)C2C(=O)OCCC12CC3CC(CC(C3)C1)C2` (repeat unit), the glass transition temperature was found to be 300.00 °C.
The molecule `*C1C(*)C2CC1C(C(=O)OCc1ccccc1)C2C(=O)OCc1ccccc1` (repeat unit) returned a glass transition temperature of 277.00 °C.
To `*C1C(*)C2CC1C(COCc1ccccc1)C2COCc1ccccc1` (repeat unit) belongs 176.00 °C; to `*C1C(=O)N(C2CCCCC2)C(=O)C1*` (repeat unit), 232.00 °C; to `*C1C(=O)N(CCCCCCCCOc2ccc(-c3ccc(C#N)cc3)cc2)C(=O)C1*` (repeat unit), 43.00 °C.
The molecule `*C1C(=O)N(CCCCCOc2ccc(-c3ccc(C#N)cc3)cc2)C(=O)C1*` (repeat unit) yielded a glass transition temperature of 75.00 °C.
In turn, `*C1C(=O)N(c2cc(Br)c(O[Si](C)(C)C)c(Br)c2)C(=O)C1*` (repeat unit) returned a glass transition temperature of 167.00 °C.
Take `*C1C(=O)N(c2ccc(O[Si](C)(C)C)cc2)C(=O)C1*` (repeat unit): the glass transition temperature came out at 172.00 °C.
In the case of `*C1C(=O)N(c2ccccc2C(=O)OC)C(=O)C1*` (repeat unit), the glass transition temperature was 259.00 °C.
`*C1C(=O)OC(=O)C1C1C2CC(C(=O)OC(C)CC)C(C2)C1*` (repeat unit): the glass transition temperature was determined as 175.00 °C.
The molecule `*C1C(=O)OC(=O)C1C1C2CC(COCCC)C(C2)C1*` (repeat unit) gave a glass transition temperature of 209.00 °C.
To `*C1C2C/C(=C\C)C(C2)C1*` (repeat unit) belongs 61.40 °C; to `*C1C2CC(C(=O)OCCc3ccc(N(c4ccccc4)c4cccc(C)c4)cc3)C(C2)C1*` (repeat unit), 305.00 °C.
To `*C1C2CC(C(=O)OCCc3ccc(N(c4ccccc4)c4cccc5ccccc45)cc3)C(C2)C1*` (repeat unit) belongs 333.00 °C; to `*C1C2CC(C)C(C2)C1*` (repeat unit), 350.00 °C.
In the case of `*C1C2CCC(C2)C1*` (repeat unit), the glass transition temperature came to 240.00 °C.
Molecule `*C1C2CCC(C2)C1S(*)(=O)=O` (repeat unit) displayed a glass transition temperature of 33.00 °C.
Molecule `*C1C=C(CCCCCC)C(*)S1` (repeat unit) gave a glass transition temperature of 58.1 °C.
Turning to `*C1C=CC(*)CC1` (repeat unit), the glass transition temperature stood at 125.50 °C.
Take `*C1CCC(*)C1` (repeat unit): the glass transition temperature was 65.10 °C.
`*CC(OC(C)=O)C(CCC(C)(O)C=C)C(*)(C)C` (repeat unit) came in with a glass transition temperature of 85.00 °C.
To `*CC(c1ccccc1)C1C(=O)NC(=O)C1*` (repeat unit) belongs 246.00 °C; to `*CC/C=C(/*)CCCCCCC` (repeat unit), -83.00 °C.
On to `*CC/C=[C](/*)[Sn]([CH2]CCC)([CH2]CCC)[CH2]CCC` (repeat unit), for which the glass transition temperature is -80.00 °C.
The molecule `*CCC/C=C(/*)c1ccc(OC)cc1` (repeat unit) gave a glass transition temperature of 11.00 °C.
As to `*CCCCCCCCCCCCCCCCOC(=O)C/C=C/CC(=O)O*` (repeat unit), the glass transition temperature is -22.00 °C.
Turning to `*CCCCCCCCCCOc1ccc(/C=C2\CC/C(=C\c3ccc(OCCCCCCCCCCOP(=O)(O*)OC)c(OC)c3)C2=O)cc1OC` (repeat unit), the glass transition temperature worked out at 48.00 °C.
With `*c1ccc(-c2ccc(-n3c(=O)c4cc5c(=O)n(*)c(=O)c5cc4c3=O)cc2C(F)(F)F)c(C(F)(F)F)c1` (repeat unit), the glass transition temperature was 379.00 ± 21 °C.
Regarding `*c1ccc(C(=O)c2cccc(-n3c(=O)c4cc5c(=O)n(*)c(=O)c5cc4c3=O)c2)cc1` (repeat unit), the glass transition temperature amounted to 340.00 ± 11 °C.
The molecule `*c1ccc(Cc2ccc(N3C(=O)C4CCC(C5CCC6C(=O)N(*)C(=O)C6C5)CC4C3=O)cc2)cc1` (repeat unit) showed a glass transition temperature of 260.00 °C.
The molecule `*c1ccc(N2C(=O)c3ccc(-c4cccc5c4C(=O)N(*)C5=O)cc3C2=O)cc1` (repeat unit) yielded a glass transition temperature of 405.00 ± 36 °C.
The molecule `*c1ccc(Oc2ccc(-c3ccc(Oc4ccc(N5C(=O)C(c6ccccc6)=C(c6ccc(C7=C(c8ccccc8)C(=O)N(*)C7=O)cc6)C5=O)cc4)cc3)cc2)cc1` (repeat unit) had a glass transition temperature of 282.00 °C.
For `*c1ccc(Oc2ccc(N3C(=O)C(c4ccccc4)=C(c4ccc(C5=C(c6ccccc6)C(=O)N(*)C5=O)cc4)C3=O)cc2)cc1` (repeat unit), the glass transition temperature was found to be 293.00 °C.
To `*c1ccc(Oc2ccc(N3C(=O)c4ccc(Oc5ccc6c(c5)C(=O)N(*)C6=O)cc4C3=O)cc2)cc1` (repeat unit) belongs 269.00 ± 14 °C.
To `*c1ccc(Oc2ccc(Oc3ccc(N4C(=O)C5CCC(C6CCC7C(=O)N(*)C(=O)C7C6)CC5C4=O)cc3)cc2)cc1` (repeat unit) belongs 238.00 °C; to `*c1ccc(Oc2cccc(Oc3ccc(N4C(=O)C5CCC(C6CCC7C(=O)N(*)C(=O)C7C6)CC5C4=O)cc3)c2)cc1` (repeat unit), 215.00 °C; to `*c1ccc2c(c1)C(=O)N(C1CC(C)(C)CC(C)(CN3C(=O)c4ccc(C(*)(C(F)(F)F)C(F)(F)F)cc4C3=O)C1)C2=O` (repeat unit), 278.00 °C.
`*c1ccc2c(c1)C(=O)N(c1ccc(N3C(=O)c4ccc(C(*)(C(F)(F)F)C(F)(F)F)cc4C3=O)cc1)C2=O` (repeat unit) displayed a glass transition temperature of 355.50 ± 19 °C.
`*c1ccc2c(c1)C(=O)N(c1cccc(N3C(=O)c4ccc(C(*)(C(F)(F)F)C(F)(F)F)cc4C3=O)c1)C2=O` (repeat unit) yielded a glass transition temperature of 298.00 ± 3.2 °C.
Regarding `*c1cccc(N2C(=O)C3CCC(C4CCC5C(=O)N(*)C(=O)C5C4)CC3C2=O)c1` (repeat unit), the glass transition temperature was 263.00 °C.
`*c1cccc(S(=O)(=O)c2cccc(N3C(=O)c4ccc(Oc5ccc6c(c5)C(=O)N(*)C6=O)cc4C3=O)c2)c1` (repeat unit) yielded a glass transition temperature of 246.00 ± 4.7 °C.
